Reference: ChEMBL document CHEMBL1201862, “PubChem BioAssay data set” (2004)
Calls of active or inactive are those of the source.

What was measured:
Protein skinhead-1 = target: T1, Protein skinhead-1 (Caenorhabditis elegans, UniProt P34707); format: functional
T1 sequence (P34707 whole entry): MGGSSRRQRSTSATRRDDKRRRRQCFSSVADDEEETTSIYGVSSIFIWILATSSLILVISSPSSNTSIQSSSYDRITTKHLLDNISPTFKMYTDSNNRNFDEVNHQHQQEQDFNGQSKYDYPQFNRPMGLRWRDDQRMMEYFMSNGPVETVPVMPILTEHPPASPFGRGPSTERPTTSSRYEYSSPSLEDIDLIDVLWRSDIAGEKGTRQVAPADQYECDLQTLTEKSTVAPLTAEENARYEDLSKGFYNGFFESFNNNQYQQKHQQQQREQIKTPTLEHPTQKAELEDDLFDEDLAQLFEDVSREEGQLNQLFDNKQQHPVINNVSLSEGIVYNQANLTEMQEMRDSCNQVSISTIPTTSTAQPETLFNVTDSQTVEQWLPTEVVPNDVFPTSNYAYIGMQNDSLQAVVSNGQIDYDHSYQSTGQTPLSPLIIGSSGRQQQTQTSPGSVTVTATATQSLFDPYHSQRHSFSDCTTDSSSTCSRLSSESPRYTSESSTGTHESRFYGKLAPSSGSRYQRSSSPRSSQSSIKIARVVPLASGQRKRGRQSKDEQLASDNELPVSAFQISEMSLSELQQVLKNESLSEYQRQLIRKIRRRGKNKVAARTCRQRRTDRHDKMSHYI

[1] = target: T2, Short transient receptor potential channel 4 (Mus musculus, UniProt Q9QUQ5); test: mouse TRPC4 channel inhibitors, dose response, cell-based, HEK293 TRPC4/mu-opioid, Fluo-4 calcium (AID 434942); format: functional;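 also: potency of inhibitors blocking the TRPC4 calcium response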
T2 sequence (Q9QUQ5 whole entry): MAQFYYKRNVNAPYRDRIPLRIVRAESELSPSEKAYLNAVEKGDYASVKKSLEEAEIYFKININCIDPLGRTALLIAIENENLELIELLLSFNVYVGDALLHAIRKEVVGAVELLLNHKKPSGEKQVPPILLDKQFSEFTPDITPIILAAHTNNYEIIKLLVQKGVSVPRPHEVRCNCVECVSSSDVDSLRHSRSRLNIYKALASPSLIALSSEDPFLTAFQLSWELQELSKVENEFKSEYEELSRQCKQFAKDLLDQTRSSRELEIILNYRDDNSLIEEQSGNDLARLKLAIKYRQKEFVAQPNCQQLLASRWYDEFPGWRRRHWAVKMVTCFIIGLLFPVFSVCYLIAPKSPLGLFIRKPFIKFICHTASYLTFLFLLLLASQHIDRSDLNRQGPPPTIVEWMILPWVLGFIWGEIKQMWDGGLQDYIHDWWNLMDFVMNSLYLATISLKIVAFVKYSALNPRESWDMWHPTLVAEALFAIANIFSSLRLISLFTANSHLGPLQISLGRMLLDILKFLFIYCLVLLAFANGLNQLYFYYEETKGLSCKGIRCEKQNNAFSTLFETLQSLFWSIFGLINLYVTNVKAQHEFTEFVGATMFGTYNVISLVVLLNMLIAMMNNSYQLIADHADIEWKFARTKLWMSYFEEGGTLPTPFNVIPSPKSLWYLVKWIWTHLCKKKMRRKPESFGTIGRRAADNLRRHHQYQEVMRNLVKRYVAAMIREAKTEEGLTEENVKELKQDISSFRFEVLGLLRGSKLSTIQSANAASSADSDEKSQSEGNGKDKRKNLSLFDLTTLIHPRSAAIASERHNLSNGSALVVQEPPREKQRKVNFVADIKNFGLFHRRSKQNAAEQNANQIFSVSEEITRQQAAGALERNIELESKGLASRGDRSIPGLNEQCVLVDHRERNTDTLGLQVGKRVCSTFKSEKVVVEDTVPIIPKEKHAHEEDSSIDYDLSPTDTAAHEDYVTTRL

Coagulation factor XII = target: T3, Coagulation factor XII (Homo sapiens, UniProt P00748); format: functional;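 also: activated factor XIIa alpha cleaving a fluorogenic AMC peptide substrate; inhibitor potency from loss of enzyme activity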
T3 sequence (P00748 whole entry): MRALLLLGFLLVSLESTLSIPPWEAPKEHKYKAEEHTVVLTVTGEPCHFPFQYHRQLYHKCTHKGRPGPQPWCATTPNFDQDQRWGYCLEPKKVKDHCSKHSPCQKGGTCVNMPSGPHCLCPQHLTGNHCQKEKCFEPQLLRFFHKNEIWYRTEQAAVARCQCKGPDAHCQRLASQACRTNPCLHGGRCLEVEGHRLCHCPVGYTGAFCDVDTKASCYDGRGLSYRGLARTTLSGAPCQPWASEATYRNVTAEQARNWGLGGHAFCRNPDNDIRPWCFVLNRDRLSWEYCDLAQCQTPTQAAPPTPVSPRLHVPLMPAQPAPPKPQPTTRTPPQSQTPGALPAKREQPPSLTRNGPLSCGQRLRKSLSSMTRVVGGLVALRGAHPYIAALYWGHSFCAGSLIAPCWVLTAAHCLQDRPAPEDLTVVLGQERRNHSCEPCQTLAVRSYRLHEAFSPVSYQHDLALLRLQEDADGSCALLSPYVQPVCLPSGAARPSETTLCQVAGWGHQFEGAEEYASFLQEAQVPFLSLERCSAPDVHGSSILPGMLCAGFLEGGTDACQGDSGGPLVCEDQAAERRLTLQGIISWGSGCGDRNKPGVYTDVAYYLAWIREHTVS

[2] = off-target signal loss in HeLa-CEM21 co-culture – HeLa F-luc CTL cells, cherry-picked, counter-screen for HIV-1 Env fusion inhibitor project, dose response (AID 652040); format: functional, cell-based;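 also: potency for signal decrease marking cytotoxic or nonspecific inhibition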
[3] = inhibitors of HIV Env-driven cell fusion, dose response, cherry-pick (AID 652057); format: functional, cell-based
[4] = inhibitors of clade B AD8 Env fusion, dose response, cell-based, cherry-pick (AID 652062); format: functional;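 also: luciferase signal from cell-cell fusion driven by HIV-1 clade B AD8 Env; potency is for inhibitors of fusion seen as a drop in luminescence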
[5] = ZM109 Env clade C HIV-1 fusion inhibitors, dose response, HeLa effector, CEM target cells, luciferase, cherry-pick (AID 652058); format: functional, cell-based
[6] = target: Peroxisome proliferator-activated receptor gamma/Nuclear receptor coactivator 1 (Homo sapiens, UniProt P37231); format: functional;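 also: agonist potency as compounds enhance coactivator SRC-1 recruitment to PPARgamma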
Sequence of Peroxisome proliferator-activated receptor gamma/Nuclear receptor coactivator 1 (P37231 whole entry): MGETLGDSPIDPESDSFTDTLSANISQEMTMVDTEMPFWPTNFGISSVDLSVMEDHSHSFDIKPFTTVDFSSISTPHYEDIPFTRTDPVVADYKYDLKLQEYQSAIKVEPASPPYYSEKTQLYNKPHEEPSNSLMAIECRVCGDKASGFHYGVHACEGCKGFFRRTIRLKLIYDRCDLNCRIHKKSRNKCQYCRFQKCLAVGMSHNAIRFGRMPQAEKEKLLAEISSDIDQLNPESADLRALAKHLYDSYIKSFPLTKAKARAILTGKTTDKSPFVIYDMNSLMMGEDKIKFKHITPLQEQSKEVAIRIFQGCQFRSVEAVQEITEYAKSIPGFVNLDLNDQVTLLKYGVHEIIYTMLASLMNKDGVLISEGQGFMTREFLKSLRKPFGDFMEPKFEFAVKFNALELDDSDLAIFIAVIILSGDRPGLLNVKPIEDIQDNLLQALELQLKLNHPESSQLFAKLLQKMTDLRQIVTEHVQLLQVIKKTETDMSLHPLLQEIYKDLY
Sequence of Peroxisome proliferator-activated receptor gamma/Nuclear receptor coactivator 1 (Q15788 whole entry, further chain): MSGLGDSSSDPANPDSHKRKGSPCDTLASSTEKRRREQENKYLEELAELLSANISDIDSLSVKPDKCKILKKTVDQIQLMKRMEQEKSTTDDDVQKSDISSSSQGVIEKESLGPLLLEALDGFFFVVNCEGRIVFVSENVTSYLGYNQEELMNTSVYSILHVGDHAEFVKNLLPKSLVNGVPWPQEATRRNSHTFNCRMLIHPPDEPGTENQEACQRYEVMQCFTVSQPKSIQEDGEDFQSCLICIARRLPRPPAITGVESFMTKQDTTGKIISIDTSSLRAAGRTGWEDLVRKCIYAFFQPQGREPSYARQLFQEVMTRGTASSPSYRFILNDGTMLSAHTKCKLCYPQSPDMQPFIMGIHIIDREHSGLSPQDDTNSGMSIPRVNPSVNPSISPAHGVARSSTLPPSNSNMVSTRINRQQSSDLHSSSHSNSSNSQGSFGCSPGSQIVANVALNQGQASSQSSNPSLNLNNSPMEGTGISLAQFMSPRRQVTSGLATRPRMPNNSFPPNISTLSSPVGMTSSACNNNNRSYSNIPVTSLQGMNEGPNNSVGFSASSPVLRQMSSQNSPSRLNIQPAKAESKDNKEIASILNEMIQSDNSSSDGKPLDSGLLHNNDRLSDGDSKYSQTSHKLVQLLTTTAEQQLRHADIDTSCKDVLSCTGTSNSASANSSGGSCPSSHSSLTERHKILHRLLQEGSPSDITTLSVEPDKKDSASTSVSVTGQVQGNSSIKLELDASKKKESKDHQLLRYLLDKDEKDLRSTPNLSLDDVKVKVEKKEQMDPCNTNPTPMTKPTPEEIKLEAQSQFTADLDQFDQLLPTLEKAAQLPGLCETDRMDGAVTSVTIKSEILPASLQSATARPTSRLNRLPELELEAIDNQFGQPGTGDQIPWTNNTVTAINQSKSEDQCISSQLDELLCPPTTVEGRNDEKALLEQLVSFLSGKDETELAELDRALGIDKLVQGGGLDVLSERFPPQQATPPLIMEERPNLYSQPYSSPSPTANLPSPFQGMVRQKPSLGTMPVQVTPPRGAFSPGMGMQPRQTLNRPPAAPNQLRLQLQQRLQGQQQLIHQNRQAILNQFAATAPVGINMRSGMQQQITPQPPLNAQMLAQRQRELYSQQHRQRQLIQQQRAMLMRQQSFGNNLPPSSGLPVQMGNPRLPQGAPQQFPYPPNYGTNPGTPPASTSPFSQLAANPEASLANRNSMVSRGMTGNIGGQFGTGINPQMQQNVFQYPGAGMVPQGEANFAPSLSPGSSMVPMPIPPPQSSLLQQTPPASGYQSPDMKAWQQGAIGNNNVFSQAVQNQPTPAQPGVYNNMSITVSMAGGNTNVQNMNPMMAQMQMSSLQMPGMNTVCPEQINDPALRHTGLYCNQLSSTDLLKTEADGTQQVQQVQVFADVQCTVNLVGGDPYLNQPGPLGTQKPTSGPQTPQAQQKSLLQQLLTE

[7] = target: Peroxisome proliferator-activated receptor gamma/Nuclear receptor coactivator 3 (Homo sapiens, UniProt P37231); format: functional;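 also: agonist potency for raising coactivator recruitment to the receptor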
[8] = target: Peroxisome proliferator-activated receptor gamma/Nuclear receptor coactivator 2 (Homo sapiens, UniProt P37231); format: functional;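 also: agonist potency for raising coactivator recruitment to the receptor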
Sequence of Peroxisome proliferator-activated receptor gamma/Nuclear receptor coactivator 2 (P37231 whole entry): as the sequence (P37231 whole entry) above
Sequence of Peroxisome proliferator-activated receptor gamma/Nuclear receptor coactivator 2 (Q15596 whole entry, further chain): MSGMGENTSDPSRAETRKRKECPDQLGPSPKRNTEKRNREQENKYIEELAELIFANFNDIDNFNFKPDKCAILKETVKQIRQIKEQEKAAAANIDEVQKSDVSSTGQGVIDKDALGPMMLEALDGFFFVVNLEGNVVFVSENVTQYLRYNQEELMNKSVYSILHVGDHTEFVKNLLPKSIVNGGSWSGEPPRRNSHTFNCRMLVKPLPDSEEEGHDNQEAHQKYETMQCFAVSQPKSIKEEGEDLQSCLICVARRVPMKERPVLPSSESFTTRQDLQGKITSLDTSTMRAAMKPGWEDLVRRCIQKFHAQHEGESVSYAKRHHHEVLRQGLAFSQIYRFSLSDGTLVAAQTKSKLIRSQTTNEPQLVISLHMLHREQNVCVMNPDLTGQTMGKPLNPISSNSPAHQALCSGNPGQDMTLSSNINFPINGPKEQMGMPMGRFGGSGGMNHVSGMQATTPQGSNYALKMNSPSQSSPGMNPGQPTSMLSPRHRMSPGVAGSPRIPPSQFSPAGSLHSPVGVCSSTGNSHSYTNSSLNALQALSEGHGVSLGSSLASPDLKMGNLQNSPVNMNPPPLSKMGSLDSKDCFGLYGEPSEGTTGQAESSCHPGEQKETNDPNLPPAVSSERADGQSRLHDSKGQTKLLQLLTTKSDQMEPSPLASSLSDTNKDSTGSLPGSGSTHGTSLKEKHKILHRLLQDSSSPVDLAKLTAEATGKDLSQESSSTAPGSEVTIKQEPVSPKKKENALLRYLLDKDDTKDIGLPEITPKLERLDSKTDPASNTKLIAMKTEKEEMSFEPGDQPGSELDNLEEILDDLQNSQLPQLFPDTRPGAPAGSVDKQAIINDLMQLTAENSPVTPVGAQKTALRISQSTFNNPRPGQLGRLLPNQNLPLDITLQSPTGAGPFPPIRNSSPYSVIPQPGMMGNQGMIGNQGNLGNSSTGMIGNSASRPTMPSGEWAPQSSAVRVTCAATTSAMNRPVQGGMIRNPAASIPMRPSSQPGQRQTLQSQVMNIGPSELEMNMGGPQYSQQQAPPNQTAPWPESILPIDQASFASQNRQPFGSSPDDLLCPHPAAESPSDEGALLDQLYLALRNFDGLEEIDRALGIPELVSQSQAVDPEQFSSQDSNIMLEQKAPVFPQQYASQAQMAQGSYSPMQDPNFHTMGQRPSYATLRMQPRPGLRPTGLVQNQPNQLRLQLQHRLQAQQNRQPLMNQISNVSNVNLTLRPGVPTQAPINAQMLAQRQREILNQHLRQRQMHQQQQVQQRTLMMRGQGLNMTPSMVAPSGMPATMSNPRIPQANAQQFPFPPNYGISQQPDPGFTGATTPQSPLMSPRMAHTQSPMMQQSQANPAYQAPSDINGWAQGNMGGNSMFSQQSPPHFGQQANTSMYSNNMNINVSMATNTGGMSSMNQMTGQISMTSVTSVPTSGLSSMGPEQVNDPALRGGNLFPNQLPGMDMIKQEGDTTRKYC

Aminopeptidase N = target: T4, Aminopeptidase N (Plasmodium falciparum FcB1/Columbia, UniProt O96935); test: P. falciparum M1AAP inhibitors, biochemical, fluorogenic H-Leu-NHMec substrate, 1536-well (AID 1445); design: species or system Plasmodium falciparum 3D7, 3D7
T4 sequence (O96935 whole entry): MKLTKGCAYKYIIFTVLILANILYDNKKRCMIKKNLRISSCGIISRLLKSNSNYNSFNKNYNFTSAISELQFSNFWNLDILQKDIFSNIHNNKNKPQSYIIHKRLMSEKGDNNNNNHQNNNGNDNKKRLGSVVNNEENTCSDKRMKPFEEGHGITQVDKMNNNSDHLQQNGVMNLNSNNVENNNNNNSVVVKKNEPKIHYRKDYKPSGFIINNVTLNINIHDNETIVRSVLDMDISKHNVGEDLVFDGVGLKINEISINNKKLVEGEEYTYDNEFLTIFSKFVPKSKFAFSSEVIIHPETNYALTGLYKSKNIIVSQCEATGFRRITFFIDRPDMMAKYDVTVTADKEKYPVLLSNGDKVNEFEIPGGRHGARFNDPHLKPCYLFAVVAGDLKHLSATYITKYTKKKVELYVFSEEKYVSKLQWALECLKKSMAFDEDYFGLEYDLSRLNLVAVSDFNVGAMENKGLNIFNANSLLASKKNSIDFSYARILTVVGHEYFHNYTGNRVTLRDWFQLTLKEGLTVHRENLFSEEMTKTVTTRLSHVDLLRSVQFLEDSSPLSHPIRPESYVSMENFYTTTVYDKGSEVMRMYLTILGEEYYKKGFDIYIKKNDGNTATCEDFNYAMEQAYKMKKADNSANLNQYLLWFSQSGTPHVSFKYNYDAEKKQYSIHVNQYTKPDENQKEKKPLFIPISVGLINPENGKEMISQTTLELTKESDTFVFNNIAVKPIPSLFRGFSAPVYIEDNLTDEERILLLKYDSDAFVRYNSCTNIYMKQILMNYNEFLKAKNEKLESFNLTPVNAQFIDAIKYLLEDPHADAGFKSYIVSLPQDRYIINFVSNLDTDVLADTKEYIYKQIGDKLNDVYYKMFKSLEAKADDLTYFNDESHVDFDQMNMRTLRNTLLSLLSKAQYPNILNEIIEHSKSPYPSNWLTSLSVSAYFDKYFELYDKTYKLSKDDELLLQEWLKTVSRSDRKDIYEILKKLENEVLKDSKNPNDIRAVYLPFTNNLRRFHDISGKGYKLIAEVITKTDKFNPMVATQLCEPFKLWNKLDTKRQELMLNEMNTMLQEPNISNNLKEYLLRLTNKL

BJ [9] = test: cytotoxicity toward BJ-TERT-LT-ST fibroblasts, dose response, cell-based, RAS-independent, luminescence (AID 1935); format: functional; details: Homo sapiens;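 also: BJ fibroblasts immortalized with TERT plus LT and ST oncogenes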
[10] = cytotoxicity toward DRD oncogenic fibroblasts, dose response, cell-based, non-viral oncogenic, luminescence (AID 1934); format: functional; details: Homo sapiens
BJ [11] = test: cytotoxicity toward BJ-TERT fibroblasts, dose response, cell-based, RAS-independent, luminescence (AID 1933); format: functional; details: Homo sapiens
BJ [12] = test: cells; format: functional, cell-based; details: Homo sapiens
[13] = Luminescence Cell-Based Dose Response HTS to Identify Activators of Luciferase Translation or Activity in H4 […] Cells. [Related pubchem assays: 1829 (Project Summary), 1814 (Primary HTS)]; format: functional
H4 = test: Luminescence Cell-Based Dose Response HTS to Identify Activators of 5'UTR Stem-Loop Driven Prion Protein mRNA Translation in H4 Neuroglioblastoma Cells. [Related pubchem assays: 1829 (Project Summary), 1814 (Primary HTS)]; format: functional; details: Homo sapiens
Cytochrome P450 3A4 = Cytochrome P450 3A4 (Homo sapiens, UniProt P08684);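 also: CYP3A4 tested as one member of a cytochrome P450 panel screen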
Sequence of Cytochrome P450 3A4 (P08684 whole entry): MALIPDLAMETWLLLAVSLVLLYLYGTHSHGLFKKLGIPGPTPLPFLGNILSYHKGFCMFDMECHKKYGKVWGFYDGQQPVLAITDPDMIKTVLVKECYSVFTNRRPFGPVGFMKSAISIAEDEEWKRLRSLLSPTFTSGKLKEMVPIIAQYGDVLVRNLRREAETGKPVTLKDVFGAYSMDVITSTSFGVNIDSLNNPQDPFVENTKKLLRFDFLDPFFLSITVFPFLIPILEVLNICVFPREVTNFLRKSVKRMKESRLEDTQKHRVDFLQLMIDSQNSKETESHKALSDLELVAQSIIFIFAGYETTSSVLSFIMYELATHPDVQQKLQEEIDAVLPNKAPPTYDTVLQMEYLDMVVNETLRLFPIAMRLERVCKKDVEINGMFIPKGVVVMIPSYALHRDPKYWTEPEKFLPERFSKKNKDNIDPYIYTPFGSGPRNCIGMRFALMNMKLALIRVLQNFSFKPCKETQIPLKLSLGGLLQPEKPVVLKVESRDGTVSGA

CC(=O)Nc1cc(NC(C)=O)cc(C(=O)OCC(=O)N2CC(C)OC(C)C2)c1 (stereo not given)
IC50 (Protein skinhead-1): > 100 µM (inactive)

Clc1ccc(CSc2ccc(-c3cccnc3)nn2)cc1
IC50 (Protein skinhead-1): 83.9 µM (inactive)

Cc1ccc(-n2cccn2)c(CN2CCCC(C(=O)c3ccc4c(c3)OCO4)C2)c1 (stereo not given)
EC50 [1]: 7.5 µM (active)

FCCCOc1ccc(-c2ccnc(-c3ccccc3)n2)cc1
IC50 (Protein skinhead-1): 52.3 µM (inactive)

CCc1nnc(NC(=O)CCC(=O)N2CCN(CCOc3ccc(C)cc3)CC2)s1
IC50 (Coagulation factor XII): > 50 µM (inactive)

O=C(Nc1ccc(F)cc1)C1CCCN1S(=O)(=O)c1ccc(Br)cc1 (stereo not given)
AC50 [2]: 14.5 µM (active) | AC50 [3]: 7.75 µM (active) | AC50 [4]: 16.3 µM (active) | AC50 [5]: 6.89 µM (active)

COc1ccc(Cl)cc1N=C(S)NNC(=O)C1(C)CC1(Cl)Cl (stereo not given)
IC50 (Coagulation factor XII): > 50 µM (inactive)

COc1cccc(C2=NN(C(=O)c3ccco3)C(c3ccco3)C2)c1 (stereo not given)
EC50 [1]: 1.88 µM (active)

COc1ccc(C2CC(=O)c3c([nH]c(C(=O)OC(C)C)c3C)C2)cc1OC (stereo not given)
EC50 [6]: > 79.4 µM (not active) | EC50 [7]: > 79.4 µM (not active) | EC50 [8]: > 79.4 µM (not active)

CC1=CN2C(=N)/C(=C/c3cc(Cl)c(O)c(Cl)c3)C(=O)N=C2S1
IC50 (Aminopeptidase N): 42 µM (active)

O=C1c2cccnc2C(Nc2ccc(S(=O)(=O)N3CCCCC3)cc2)N1Cc1ccccc1 (stereo not given)
AC50 [2]: 58.9 µM (active) | AC50 [3]: 7.23 µM (active)

CC(C)(C)n1nnnc1C(c1cccs1)N(Cc1cccnc1)Cc1ccco1 (stereo not given)
AC50 [2]: 15.2 µM (active) | AC50 [3]: 3.99 µM (active) | AC50 [4]: 7.08 µM (active) | AC50 [5]: 4.74 µM (active)

COc1ccc(C(=O)c2cc([N+](=O)[O-])ccc2N2CCCC2)cc1
EC50 (BJ [9]): 3.87 µM (inconclusive) | EC50 [10]: 3.06 µM (active) | EC50 (BJ [11]): 13 µM (active) | EC50 (BJ [12]): 58.2 µM (active)

O=C(COC(=O)C1CC1)Nc1nc(-c2ccc(F)c(F)c2)cs1
EC50 [1]: 2.99 µM (active)

Fc1cccc(CSc2ccc(-c3ccco3)nn2)c1
EC50 [13]: 49.2 µM (active) | IC50 (Protein skinhead-1): > 100 µM (inactive) | EC50 (H4): 8.43 µM (active)

CCOCCCn1cnc2c(c1=O)c1nc3ccccc3nc1n2-c1ccccc1
IC50 (Coagulation factor XII): > 50 µM (inactive) | AC50 (Cytochrome P450 3A4): 20 µM (inconclusive)

COC(=O)c1cccc(NC(=O)CSc2nnc[nH]2)c1
IC50 (Coagulation factor XII): > 50 µM (inactive)

COc1ccc(CN(Cc2ccc(OC)cc2)C(=O)c2cccs2)cc1
IC50 (Coagulation factor XII): > 50 µM (inactive)

Cc1nc2ccccc2n1CCOc1ccc(F)cc1
EC50 [1]: 0.376 µM (active)

CCc1nnc(NC(=O)CSc2ncnc3c2oc2ccccc23)s1
EC50 [6]: 22.6 µM (not active) | EC50 [7]: 23.5 µM (not active) | EC50 [8]: 18.3 µM (not active)

Nc1nc(C2CCCN2S(=O)(=O)c2ccc(Cl)cc2)cs1 (stereo not given)
EC50 [6]: > 79.4 µM (not active) | EC50 [7]: > 79.4 µM (not active) | EC50 [8]: > 79.4 µM (not active)

O=C(c1ccccc1)c1cc([N+](=O)[O-])ccc1N1CCCC1
EC50 (BJ [9]): > 150 µM (not active) | EC50 [10]: > 150 µM (not active) | EC50 (BJ [11]): > 150 µM (not active) | EC50 (BJ [12]): > 150 µM (not active)

CCCC(=O)NNC(=O)c1ccoc1C
IC50 (Coagulation factor XII): > 50 µM (inactive)

C[C@H]1CN([C@@H](C)CO)C(=O)c2cc(NS(=O)(=O)c3ccc(F)cc3)ccc2O[C@H]1CN(C)S(=O)(=O)c1ccc(F)cc1
AC50 [5]: 42.4 µM (active)

COc1cccc2cc(C(N)=O)/c(=N\NC(=O)c3ccccc3)oc12
EC50 [1]: 0.188 µM (active)

CCOC(=O)c1s/c(=N\C(=O)c2ccc(OC(C)C)cc2)n(C)c1C
EC50 [6]: 18.3 µM (not active) | EC50 [7]: 20.3 µM (not active) | EC50 [8]: 16.2 µM (not active)
